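All cell lines were grown in 96-well plates and treated with compound for 48 hours. TGI marks complete inhibition of growth.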

From PubChem BioAssay (NCI) come the findings set out here.

Test systems include 786-0 renal; A498 renal; BT-549 breast; CAKI-1 renal; HCT-15 colon; K-562 leukemia; KM12 colon; M14 melanoma; MALME-3M melanoma; MCF7 breast; MDA-MB-435; NCI-H23 lung; NCI-H460 lung; OVCAR-3 ovarian; OVCAR-8 ovarian; SNB-19 CNS; SNB-75 CNS; TK-10 renal; SK-MEL-5 melanoma.
Holding throughout (assay): NCI anticancer screen, dose series, 48 h

As to `Cn1c2ccccc2c2nc3ccccc3c(Cl)c21`, the TGI in the assay on 786-0 renal, in the assay with A498 renal, with BT-549 breast, with CAKI-1 renal, in the assay with HCT-15 colon and in the assay on K-562 leukemia was above 100 µM each time. Also, the TGI in the assay with KM12 colon, in the assay on M14 melanoma, with MALME-3M melanoma, in the assay with MCF7 breast, in the assay on MDA-MB-435 and in the assay with NCI-H23 lung was above 100 µM in each case. Moreover, the TGI in the assay on NCI-H460 lung, with OVCAR-3 ovarian, in the assay on OVCAR-8 ovarian, with SNB-19 CNS, with SNB-75 CNS and in the assay on TK-10 renal was above 100 µM throughout.

In the case of `CCCCNC(=O)CCN(C(=O)O)S(=O)(=O)c1ccc(NC(=O)c2ccccc2)cc1`, the TGI with 786-0 renal is 29.7 µM; in the assay on A498 renal, above 100 µM; with CAKI-1 renal it was above 100 µM; in the assay with HCT-15 colon, above 100 µM; in the assay with K-562 leukemia it was above 100 µM; with KM12 colon, above 100 µM. The TGI in the assay on M14 melanoma, in the assay on MALME-3M melanoma, in the assay on NCI-H23 lung, in the assay on NCI-H460 lung, in the assay with OVCAR-3 ovarian and in the assay on OVCAR-8 ovarian was above 100 µM in each case. Moreover, the TGI in the assay on SK-MEL-5 melanoma, in the assay on SNB-19 CNS, in the assay on SNB-75 CNS and with TK-10 renal was above 100 µM each time.

Regarding `C/C(CC(=O)NC1=CC=C(NC(=O)C/C(C)=N\Nc2ccccc2)CC1)=N/Nc1ccccc1`, the TGI in the assay on 786-0 renal, with A498 renal, in the assay with CAKI-1 renal, in the assay on HCT-15 colon, in the assay on K-562 leukemia and with KM12 colon was above 100 µM in each case. Further, the TGI in the assay with M14 melanoma, with MALME-3M melanoma, in the assay with NCI-H23 lung, in the assay with NCI-H460 lung, in the assay on OVCAR-3 ovarian and with OVCAR-8 ovarian was above 100 µM in each case. Further, the TGI in the assay on SK-MEL-5 melanoma, in the assay with SNB-19 CNS, with SNB-75 CNS and in the assay on TK-10 renal was above 100 µM in each case.

For the compound `CC1CN=C(NS(=O)(=O)c2cc(C(=O)Nc3ccc(F)cc3)c(Cl)cc2S)NN1` (stereo unspecified), the TGI in the assay with 786-0 renal was above 100 µM; in the assay with A498 renal, 64.1 µM; with BT-549 breast it was above 100 µM; in the assay with CAKI-1 renal it was above 100 µM; in the assay on HCT-15 colon, above 100 µM; with K-562 leukemia it was above 100 µM. Further, the TGI was above 100 µM with KM12 colon; above 100 µM with M14 melanoma; 70.1 µM with MALME-3M melanoma; above 100 µM with MCF7 breast; above 100 µM with MDA-MB-435; above 100 µM with NCI-H23 lung. In addition, the TGI in the assay with NCI-H460 lung, with OVCAR-3 ovarian, with OVCAR-8 ovarian, with SK-MEL-5 melanoma, in the assay on SNB-19 CNS and with TK-10 renal was above 100 µM each time.

Regarding `C[C@@H]1OC(=O)C[C@H]2CC(=O)N(CCC3CN(S(=O)(=O)C(F)(F)F)c4ccccc43)C[C@@H]21` (stereo partly specified), the TGI in the assay on 786-0 renal, in the assay with A498 renal, in the assay with CAKI-1 renal, with HCT-15 colon, in the assay with K-562 leukemia and in the assay with KM12 colon was above 100 µM throughout. Also, the TGI in the assay on M14 melanoma, in the assay with MALME-3M melanoma, in the assay with MCF7 breast, in the assay with MDA-MB-435, with NCI-H23 lung and with NCI-H460 lung was above 100 µM in each case. Further, the TGI with OVCAR-3 ovarian, in the assay with SK-MEL-5 melanoma and in the assay on SNB-19 CNS was above 100 µM each time.

On to `O=C(Cn1c2ccc(Br)cc2c2nc3ccccc3nc21)N/N=C/c1ccccc1`, for which the TGI with 786-0 renal was 94.8 µM; in the assay with A498 renal it was above 100 µM; in the assay on BT-549 breast it was above 100 µM; with CAKI-1 renal, above 100 µM; with K-562 leukemia it was above 100 µM; in the assay on KM12 colon it was above 100 µM. The TGI in the assay on M14 melanoma, in the assay with MCF7 breast, with MDA-MB-435, in the assay with NCI-H23 lung, in the assay on OVCAR-3 ovarian and in the assay with OVCAR-8 ovarian was above 100 µM throughout. The TGI in the assay with SK-MEL-5 melanoma, in the assay with SNB-19 CNS, in the assay on SNB-75 CNS and in the assay with TK-10 renal was above 100 µM in each case.

Consider `COc1cc(C)c(C)c(OC(=O)c2c(C)c(C)c(OC)c(C)c2OC)c1C`, for which the TGI with 786-0 renal turned out to be 53.4 µM; in the assay with A498 renal, 45.9 µM; with CAKI-1 renal, 79.6 µM; in the assay on HCT-15 colon it was 18.5 µM; with K-562 leukemia, 44.7 µM; in the assay with KM12 colon, 50.9 µM. In addition, the TGI is 33.9 µM with M14 melanoma; 65.7 µM in the assay on MALME-3M melanoma; 52.9 µM in the assay with NCI-H23 lung; 20.4 µM in the assay on NCI-H460 lung; 7.15 µM in the assay with OVCAR-3 ovarian; above 100 µM in the assay with OVCAR-8 ovarian. Moreover, the TGI in the assay with SK-MEL-5 melanoma is 22.7 µM; in the assay on SNB-19 CNS, above 100 µM; with SNB-75 CNS, 36 µM; in the assay with TK-10 renal it was above 100 µM.

Take `COC(=O)CCc1cccnc1/C=N/O`: the TGI in the assay on 786-0 renal, in the assay on A498 renal, with CAKI-1 renal, in the assay on HCT-15 colon, in the assay with K-562 leukemia and in the assay with KM12 colon was above 100 µM in each case. In addition, the TGI in the assay on M14 melanoma, in the assay with MALME-3M melanoma, in the assay with NCI-H23 lung, with NCI-H460 lung, with OVCAR-3 ovarian and in the assay on OVCAR-8 ovarian was above 100 µM throughout. Besides, the TGI in the assay with SK-MEL-5 melanoma, in the assay with SNB-19 CNS, in the assay with SNB-75 CNS and in the assay with TK-10 renal was above 100 µM in each case.
